According to patent publication US8912338B2, “Pesticidal compositions” (Dow AgroSciences LLC, priority 2010, dated 2014):

Legend:
[1] = test system: Sweetpotato Whitefly (Bemisia tabaci); assay: Insecticidal test for sweetpotato whitefly in foliar spray assay; assay type: in vivo; conditions: 200 ppm foliar spray on cotton plants infested with eggs, live nymphs counted after 8-9 days, Abbott's corrected % control, read-out: BEMITA % Ctrl @ 200 ppm
Experimental: Cotton plants were used as test substrate and were grown in 3-inch pots and pruned until only 1 small (3-5 cm) true leaf remained. The plants were then placed in a room with whitefly ([…]) adults and allowed to be infested with eggs. After a 2-3 day egg-laying period, plants were taken from the adult whitefly room and the adults were removed from the leaves using compressed air delivered through a hand-held Devilbiss sprayer (23 psi). Plants infested with eggs (100-300 eggs per plant) were placed in a controlled-environment room for 5-6 days at 82° F. and 50% RH until approximately 50% egg hatch. Four cotton plants (4 replicates) were used for each treatment. Compounds (2 mg) were dissolved in 1 mL of acetone solvent, forming stock solutions of 2000 ppm. The stock solutions were diluted 10× with 0.025% Tween 20 in H2O to obtain the test solution of 200 ppm. A hand-held Devilbiss sprayer was used for spraying a solution to both sides of cotton leaf until runoff. Reference plants (solvent check) were sprayed with the diluent only. Treated plants were held in a holding room for 8-9 days at approximately 82° F. and 50% RH prior to grading. Evaluation was conducted by counting the number of live nymphs per plant under a microscope. Insecticidal activity data presented in Table 3 were generated by using Abbott's correction formula: Corrected%Control=100*(X-Y)/X • where X=No. of live nymphs on solvent check plants • Y=No. of live nymphs on treated plants […]

[2] = test system: Green Peach Aphid (Myzus persicae); assay: Insecticidal test for green peach aphid in foliar spray assay; assay type: in vivo; conditions: 72 h, 200 ppm foliar spray on cabbage seedlings, live aphids counted after three days, Abbott's corrected % control, read-out: MYZUPE % Ctrl @ 200 ppm
Experimental: Certain molecules disclosed in this document were tested against MYZUPE using procedures described in the following example. In the reporting of the results, the “MYZUPE, APHIGO and BEMITA Rating Table” was used (See Table Section).
Cabbage seedlings grown in 3-inch pots, with 2-3 small (3-5 cm) true leaves, were used as test substrate. The seedlings were infested with 20-50 green peach aphids (wingless adult and nymph stage) one day prior to chemical application. Four pots with individual seedlings were used for each treatment. Compounds (2 mg) were dissolved in 2 mL of acetone/methanol (1:1) solvent, forming stock solutions of 1000 ppm. The stock solutions were diluted 5× with 0.025% Tween 20 in H2O to obtain the test solution at 200 ppm. A hand-held Devilbiss sprayer was used for spraying a solution to both sides of cabbage leaves until runoff. Reference plants (solvent check) were sprayed with the diluent only. Treated plants were held in a holding room for three days at approximately 25° C. and 40% relative humidity (RH) prior to grading. Evaluation was conducted by counting the number of live aphids per plant under a microscope. Insecticidal activity data presented in Table 3 were generated by using Abbott's correction formula: Corrected%Control=100*(X−Y)/X • where X=No. of live aphids on solvent check plants • Y=No. of live aphids on treated plants

[3] = test system: Cotton Aphid (Aphis gossypii); assay: Insecticidal test for cotton aphid in a foliar spray assay; assay type: in vivo; conditions: 72 h, 200 ppm foliar spray on squash or cotton seedlings, live aphids counted after three days, Abbott's corrected % control, read-out: APHIGO % Ctrl @ 200 ppm
Experimental: Squash or cotton seedlings with fully expanded cotyledon leaves were trimmed to one cotyledon per plant and infested with wingless adult and nymph stage cotton aphid (APHIGO) one day prior to chemical application. Each plant was examined before chemical application to ensure uniform infestation (ca. 30-70 aphids per plant). Compounds (2 mg) were dissolved in 2 mL of acetone/methanol (1:1) solvent, forming stock solutions of 1000 ppm. The stock solutions were diluted 5× with 0.025% Tween 20 in H2O to obtain a solution at 200 ppm. A hand-held Devilbiss aspirator type sprayer was used to apply the spray solutions until runoff to both sides of the squash cotyledon leaves. Four plants (4 replications) were used for each concentration of each compound. Reference plants (solvent check) were sprayed with the diluent only. Treated plants were held in a holding room for three days at approximately 25° C. and 40% RH before the number of live cotton aphids on each plant was recorded. Insecticidal activity data presented in Table 3 were generated by using Abbott's correction formula: Corrected%Control=100*(X−Y)/X • where X=No. of live aphids on solvent check plants • Y=No. of live aphids on treated plants

| Compound | melting point | inhibition at 200 ppm [1] | inhibition at 200 ppm [2] | inhibition at 200 ppm [3] |
| --- | --- | --- | --- | --- |
| CSCCC(=O)Nc1nnc(-c2cccnc2)s1 [Compound 7] | 211 to 212 °C | 0 to 80% | 0 to 80% | 0 to 80% |
| CN(C(=O)C(C)(C)C/S(C)=N/C#N)c1nnc(-c2cccnc2)s1 (stereo not shown) [Compound 39, N-2,2-trimethyl-3-(methyl-N-cyano-sulfiliminyl)-N-(5-(pyridin-3-yl)-1,3,4-thiadiazol-2-yl)propanamide] | 42 to 52 °C | 0 to 80% | 80 to 100% | 80 to 100% |
| CSCCC(=O)N(C)c1nnc(-c2cccnc2)s1 [Compound 1] | 99 to 101 °C | 0 to 80% | 80 to 100% | 80 to 100% |
| CSCCOC(=O)N(C)c1nnc(-c2cccnc2)s1 [Compound 50, 2-(Methylthio)ethyl methyl(5-(pyridin-3-yl)-1,3,4-thiadiazol-2-yl)carbamate] | 126 to 128 °C | 0 to 80% | 80 to 100% | 80 to 100% |
| CCSCC(=O)N(C)c1nnc(-c2cccnc2)s1 [Compound 8] | 87 to 92 °C | < 0% | 80 to 100% | 80 to 100% |
| CSCC(C)(C)C(=O)N(C)c1nnc(-c2cccnc2)s1 [Compound 24, N-2,2-trimethyl-3-(methylthio)-N-(5-(pyridin-3-yl)-1,3,4-thiadiazol-2-yl)propanamide] | 89 to 91 °C | 0 to 80% | 80 to 100% | 80 to 100% |

Further lines, with some results ahead:

| melting point | Compound | inhibition at 200 ppm [1] | inhibition at 200 ppm [2] | inhibition at 200 ppm [3] |
| --- | --- | --- | --- | --- |
| 146 to 147 °C | CC(=O)CCC(=O)N(C)c1nnc(-c2cccnc2)s1 [Compound 49, N-methyl-4-oxo-N-[5-(3-pyridyl)-1,3,4-thiadiazol-2-yl]pentanamide] | 0 to 80% | 0 to 80% | 80 to 100% |
| 152 to 154 °C | COC(=O)CCC(=O)N(C)c1nnc(-c2cccnc2)s1 [Compound 56, methyl 4-(methyl-(5-(pyridin-3-yl)-1,3,4-thiadiazol-2-yl)amino)-4-oxobutanoate] | < 0% | 0 to 80% | 80 to 100% |
| 138 to 140 °C | CN(C(=O)CC[S+](C)[O-])c1nnc(-c2cccnc2)s1 (stereo not shown) [Compound 18, N-methyl-3-(methylsulfinyl)-N-(5-(pyridin-3-yl)-1,3,4-thiadiazol-2-yl)propanamide] | 0 to 80% | 80 to 100% | 80 to 100% |
| 92 to 97.5 °C | COCCC(=O)N(C)c1nnc(-c2cccnc2)s1 [Compound 3] | 0 to 80% | 80 to 100% | 80 to 100% |
